# Target: T1, HDAC6 (Homo sapiens, UniProt Q9UBN7)
# T1 construct: Full length human recombinant HDAC6 protein was expressed in baculoviral system; made in house; host or cells: baculoviral system
# T1 sequence (Q9UBN7 1-1215): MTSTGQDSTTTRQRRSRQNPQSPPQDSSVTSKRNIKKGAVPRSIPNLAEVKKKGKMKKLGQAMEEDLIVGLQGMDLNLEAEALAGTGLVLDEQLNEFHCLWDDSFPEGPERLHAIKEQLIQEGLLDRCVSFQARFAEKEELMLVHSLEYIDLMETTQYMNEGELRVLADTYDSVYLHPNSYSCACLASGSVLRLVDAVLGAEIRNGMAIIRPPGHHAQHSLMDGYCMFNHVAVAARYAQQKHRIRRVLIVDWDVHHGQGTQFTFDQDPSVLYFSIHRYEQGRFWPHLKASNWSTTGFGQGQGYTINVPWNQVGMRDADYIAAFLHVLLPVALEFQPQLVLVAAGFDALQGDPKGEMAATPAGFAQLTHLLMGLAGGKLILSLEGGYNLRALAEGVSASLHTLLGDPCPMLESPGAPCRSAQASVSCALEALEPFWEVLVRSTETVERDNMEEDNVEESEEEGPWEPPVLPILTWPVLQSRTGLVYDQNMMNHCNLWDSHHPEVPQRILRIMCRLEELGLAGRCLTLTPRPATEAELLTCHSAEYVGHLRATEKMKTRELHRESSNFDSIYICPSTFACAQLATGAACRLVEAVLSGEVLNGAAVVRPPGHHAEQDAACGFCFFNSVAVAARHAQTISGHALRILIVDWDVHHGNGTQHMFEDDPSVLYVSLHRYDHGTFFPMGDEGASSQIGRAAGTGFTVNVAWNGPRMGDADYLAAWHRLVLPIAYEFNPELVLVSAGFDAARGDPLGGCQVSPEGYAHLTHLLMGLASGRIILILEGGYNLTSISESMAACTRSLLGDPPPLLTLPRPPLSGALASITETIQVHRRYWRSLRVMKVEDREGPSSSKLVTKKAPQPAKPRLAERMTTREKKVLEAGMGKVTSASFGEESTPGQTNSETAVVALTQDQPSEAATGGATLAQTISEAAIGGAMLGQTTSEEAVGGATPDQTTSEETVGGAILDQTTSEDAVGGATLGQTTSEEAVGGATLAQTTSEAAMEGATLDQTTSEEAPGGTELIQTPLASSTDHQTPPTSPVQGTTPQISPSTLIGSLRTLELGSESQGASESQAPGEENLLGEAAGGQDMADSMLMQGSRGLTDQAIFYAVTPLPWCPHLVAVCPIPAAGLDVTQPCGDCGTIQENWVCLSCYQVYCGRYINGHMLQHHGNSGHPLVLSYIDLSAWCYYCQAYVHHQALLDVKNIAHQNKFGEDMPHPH
# Test: In vitro Histone Deacetylase Assay (enzymatic HDAC6 electrophoretic mobility shift assay)
# Format: biochemical
# Conditions: full length human recombinant HDAC6, 1 nM enzyme, 2 μM peptide substrate RHKK(Ac)-NH2, 25° C.; read-out: HDAC6 activity range
# Method in brief: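 Deacetylation was read by microfluidic mobility shift as product/(substrate+product) peak ratio and normalised to 0% and 100% inhibition controls. Reactions used 1 nM baculovirus-expressed full-length human HDAC6 and 2 μM labelled RHKK(Ac)-NH2 in pH 7.5 HEPES buffer with 1% DMSO at 25 °C. IC50 was from 4-parameter fits of 12 concentrations.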
row,IC50 [nM],Structure (SMILES)
1,≤ 100,"N#Cc1ccccc1N1CC[C@]2(CCc3cc(C(=O)NO)ccc3C2)C1=O [Compound I-175, (R)-1′-(2-cyanophenyl)-N-hydroxy-2′-oxo-3,4-dihydro-1H-spiro[naphthalene-2,3′-pyrrolidine]-6-carboxamide]"
2,≤ 100,"O=C(NO)c1ccc2c(c1)CCC1(CCCN(Cc3ccccc3)C1=O)C2 (centres unmarked) [Compound I-176, 1′-benzyl-N-hydroxy-2′-oxo-3,4-dihydro-1H-spiro[naphthalene-2,3′-piperidine]-6-carboxamide]"
3,≤ 100,"O=C(NO)c1ccc2c(c1)CCC1(CCCNC1=O)C2 (centres unmarked) [Compound I-177, N-hydroxy-2′-oxo-3,4-dihydro-1H-spiro[naphthalene-2,3′-piperidine]-6-carboxamide]"
4,≤ 100,"CN1CCCC2(CCc3cc(C(=O)NO)ccc3C2)C1=O (centres unmarked) [Compound I-178, N-hydroxy-1′-methyl-2′-oxo-3,4-dihydro-1H-spiro[naphthalene-2,3′-piperidine]-6-carboxamide]"
5,≤ 100,"O=C(NO)c1ccc2c(c1)CC[C@]1(CCCN(C3CC3)C1=O)C2 [Compound I-183, (S)-1′-cyclopropyl-N-hydroxy-2′-oxo-3,4-dihydro-1H-spiro[naphthalene-2,3′-piperidine]-6-carboxamide]"
6,≤ 100,"O=C(NO)c1ccc2c(c1)CC[C@@]1(CCCN(C3CCCC3)C1=O)C2 [Compound I-199, (R)-1′-cyclopentyl-N-hydroxy-2′-oxo-3,4-dihydro-1H-spiro[naphthalene-2,3′-piperidine]-6-carboxamide]"
7,≤ 100,"O=C(NO)c1ccc2c(c1)CC[C@]1(CCCN(C3CCCC3)C1=O)C2 [Compound I-200, (S)-1′-cyclopentyl-N-hydroxy-2′-oxo-3,4-dihydro-1H-spiro[naphthalene-2,3′-piperidine]-6-carboxamide]"
8,≤ 100,"O=C(NO)c1ccc2c(c1)CC[C@]1(CC(=O)N(c3ccncc3)C1)C2 [Compound I-228, (R)-N-hydroxy-5′-oxo-1′-(pyridin-4-yl)-3,4-dihydro-1H-spiro[naphthalene-2,3′-pyrrolidine]-6-carboxamide]"
9,≤ 100,"O=C(NO)c1ccc2c(c1)CC[C@]1(CC(=O)N(c3ccccn3)C1)C2 [Compound I-229, (R)-N-hydroxy-5′-oxo-1′-(pyridin-2-yl)-3,4-dihydro-1H-spiro[naphthalene-2,3′-pyrrolidine]-6-carboxamide]"
10,> 500,"O=C(NO)c1ccc2c(c1)CCC1(CCN(Cc3ccncc3)C1=O)O2 (centres unmarked) [Compound I-230, N-hydroxy-2′-oxo-1′-(pyridin-4-ylmethyl)spiro[chromane-2,3′-pyrrolidine]-6-carboxamide]"
11,100 to 500,"O=C(NO)c1ccc2c(c1)CCC1(CCN(c3ccccc3)C1=O)O2 (centres unmarked) [Compound I-231, N-hydroxy-2′-oxo-1′-phenylspiro[chromane-2,3′-pyrrolidine]-6-carboxamide]"
12,100 to 500,"O=C(NO)c1ccc2c(c1)CCC1(CCN(Cc3ccccc3)C1=O)O2 (centres unmarked) [Compound I-232, 1′-benzyl-N-hydroxy-2′-oxospiro[chromane-2,3′-pyrrolidine]-6-carboxamide]"
13,100 to 500,"O=C(NO)c1ccc2c(c1)CCC1(CCN(c3cccnc3)C1=O)O2 (centres unmarked) [Compound I-233, N-hydroxy-2′-oxo-1′-(pyridin-3-yl)spiro[chromane-2,3′-pyrrolidine]-6-carboxamide]"
14,> 500,"O=C(NO)c1ccc2c(c1)CCC1(CCN(CC3CCOCC3)C1=O)O2 (centres unmarked) [Compound I-234, N-hydroxy-2′-oxo-1′-((tetrahydro-2H-pyran-4-yl)methyl)spiro[chromane-2,3′-pyrrolidine]-6-carboxamide]"
15,> 500,"CC(C)N1CCC2(CCc3cc(C(=O)NO)ccc3O2)C1=O (centres unmarked) [Compound I-235, N-hydroxy-1′-isopropyl-2′-oxospiro[chromane-2,3′-pyrrolidine]-6-carboxamide]"
16,100 to 500,"O=C(NO)c1ccc2c(c1)CCC1(CCNC1=O)O2 (centres unmarked) [Compound I-236, N-hydroxy-2′-oxospiro[chromane-2,3′-pyrrolidine]-6-carboxamide]"
17,100 to 500,"CN1CCC2(CCc3cc(C(=O)NO)ccc3O2)C1=O (centres unmarked) [Compound I-237, N-hydroxy-1′-methyl-2′-oxospiro[chromane-2,3′-pyrrolidine]-6-carboxamide]"
18,100 to 500,"O=C(NO)c1ccc2c(c1)CCC1(CCN(c3ccccc3)C1=O)S2(=O)=O (centres unmarked) [Compound I-238, N-hydroxy-2-oxo-1-phenylspiro[pyrrolidine-3,2′-thiochromane]-6′-carboxamide 1′,1′-dioxide]"
19,100 to 500,"O=C(NO)c1ccc2c(c1)CCC1(CCN(Cc3ccccc3)C1=O)S2(=O)=O (centres unmarked) [Compound I-239, 1-benzyl-N-hydroxy-2-oxospiro[pyrrolidine-3,2′-thiochromane]-6′-carboxamide 1′,1′-dioxide]"
20,100 to 500,"O=C(NO)c1ccc2c(c1)CCC1(CCN(c3cccnc3)C1=O)S2(=O)=O (centres unmarked) [Compound I-240, N-hydroxy-2-oxo-1-(pyridin-3-yl)spiro[pyrrolidine-3,2′-thiochromane]-6′-carboxamide 1′,1′-dioxide]"
21,> 500,"O=C(NO)c1ccc2c(c1)CCC1(CCN(CC3CCOCC3)C1=O)S2(=O)=O (centres unmarked) [Compound I-241, N-hydroxy-2-oxo-1-((tetrahydro-2H-pyran-4-yl)methyl)spiro[pyrrolidine-3,2′-thiochromane]-6′-carboxamide 1′,1′-dioxide]"
22,> 500,"O=C(NO)c1ccc2c(c1)CCC1(CCN(Cc3ccncc3)C1=O)S2(=O)=O (centres unmarked) [Compound I-242, N-hydroxy-2-oxo-1-(pyridin-4-ylmethyl)spiro[pyrrolidine-3,2′-thiochromane]-6′-carboxamide 1′,1′-dioxide]"
23,> 500,"O=C(NO)c1ccc2c(c1)CCC1(CCNC1=O)S2(=O)=O (centres unmarked) [Compound I-243, N-hydroxy-2-oxospiro[pyrrolidine-3,2′-thiochromane]-6′-carboxamide 1′,1′-dioxide]"
24,> 500,"CN1CCC2(CCc3cc(C(=O)NO)ccc3S2(=O)=O)C1=O (centres unmarked) [Compound I-244, N-hydroxy-1-methyl-2-oxospiro[pyrrolidine-3,2′-thiochromane]-6′-carboxamide 1′,1′-dioxide]"
25,> 500,"COc1ccc(CN2CCC3(CCc4cc(C(=O)NO)ccc4O3)CC2)cc1 [II-1, N-hydroxy-1′-(4-methoxybenzyl)spiro[chromane-2,4′-piperidine]-6-carboxamide]"
26,> 500,"O=C(NO)c1ccc2c(c1)CCC1(CCN(Cc3nc4ccccc4[nH]3)CC1)O2 [II-2, 1′-((1H-benzo[d]imidazol-2-yl)methyl)-N-hydroxyspiro[chromane-2,4′-piperidine]-6-carboxamide]"
27,> 500,"O=C(NO)c1ccc2c(c1)CCC1(CCN(C(=O)C3CCCCC3)CC1)O2 [II-3, 1′-(cyclohexanecarbonyl)-N-hydroxyspiro[chromane-2,4′-piperidine]-6-carboxamide]"
28,> 500,"COc1ccc(C(=O)N2CCC3(CCc4cc(C(=O)NO)ccc4O3)CC2)cc1 [II-4, N-hydroxy-1′-(4-methoxybenzoyl)spiro[chromane-2,4′-piperidine]-6-carboxamide]"
29,> 500,"COc1ccc(S(=O)(=O)N2CCC3(CCc4cc(C(=O)NO)ccc4O3)CC2)cc1 [II-5, N-hydroxy-1′-((4-methoxyphenyl)sulfonyl)spiro[chromane-2,4′-piperidine]-6-carboxamide]"
